Experimental findings from patent publication US20190337924A1, “SUBSTITUTED HYDANTOIN AND THIOHYDANTOIN DERIVATIVES AS ANDROGEN RECEPTOR ANTAGONISTS” (Janssen Pharmaceutica NV, priority 2016, published 2019) are described below.

Each structure is given as a SMILES string. pIC50: −log10 of the molar value. Where a name gives a salt, the structure may show the parent alone. Read-outs that look alike come from different tables or passages of the source.

The target of the test is T1, F876L mutant Androgen Receptor (AR-F876L) (Homo sapiens, UniProt P10275, F877L).
T1 construct: expressed in transfected cells; host or cells: LNCaP
T1 sequence (P10275 1-920 F877L): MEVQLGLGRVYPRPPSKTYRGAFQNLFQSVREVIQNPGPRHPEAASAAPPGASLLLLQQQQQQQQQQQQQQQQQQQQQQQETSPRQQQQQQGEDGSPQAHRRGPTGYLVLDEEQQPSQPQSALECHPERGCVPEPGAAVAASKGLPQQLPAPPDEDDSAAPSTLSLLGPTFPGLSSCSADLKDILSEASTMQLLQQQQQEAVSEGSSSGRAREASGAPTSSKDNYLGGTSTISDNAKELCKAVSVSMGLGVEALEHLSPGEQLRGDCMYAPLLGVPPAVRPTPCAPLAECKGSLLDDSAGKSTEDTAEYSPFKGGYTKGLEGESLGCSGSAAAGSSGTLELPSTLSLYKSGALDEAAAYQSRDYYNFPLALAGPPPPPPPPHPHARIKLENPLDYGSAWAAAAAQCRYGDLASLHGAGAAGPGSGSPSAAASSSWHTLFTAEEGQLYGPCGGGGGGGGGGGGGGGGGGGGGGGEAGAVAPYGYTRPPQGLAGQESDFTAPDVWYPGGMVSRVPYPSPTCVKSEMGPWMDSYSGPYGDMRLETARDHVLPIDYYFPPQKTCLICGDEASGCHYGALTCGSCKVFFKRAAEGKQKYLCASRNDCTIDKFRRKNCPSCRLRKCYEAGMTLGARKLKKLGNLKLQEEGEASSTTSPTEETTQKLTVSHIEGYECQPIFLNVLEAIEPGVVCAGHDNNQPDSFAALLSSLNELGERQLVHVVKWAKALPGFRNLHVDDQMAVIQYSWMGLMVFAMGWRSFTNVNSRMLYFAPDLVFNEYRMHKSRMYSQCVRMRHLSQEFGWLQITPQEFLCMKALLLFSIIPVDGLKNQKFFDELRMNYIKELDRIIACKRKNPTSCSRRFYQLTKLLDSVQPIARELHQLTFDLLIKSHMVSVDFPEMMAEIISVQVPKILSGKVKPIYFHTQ
Put plainly: AR reporter assay, LNCaP-AR-F876L ANT (antagonist mode). The test is classed as cell-based. Conditions: for Emax: read-out: LNCaP-AR-F876L ANT MAX % Inh; for IC50: antagonist mode, 600 pM R-1881 challenge, luciferase reporter, -Log10(IC50 in Molar), read-out: LNCaP-AR-F876L ANT pIC50 (converted). From the text:
LNCaP AR (cs) and LNCaP F876L luciferase cell lines were generated by transduction of each cell line (description of cell line generation Joseph J D, Lu N, Qian J, Sensintaffar J, Shao G, Brigham D, Moon M, Maneval E C, Chen I, Darimont B, Hager J H. A clinically relevant androgen receptor mutation confers resistance to second-generation antiandrogens enzalutamide and ARN-509. Cancer Discov 2013; 3:1020-1029) with an Androgen Response Element Firefly Luciferase lentiviral construct at an MOI (multiplicity of infection) of 50 following the manufacturer's instructions (Qiagen). A stable pooled-population cell line was generated using puromycin (Life Technologies) selection at 1:10,000 v/v. The protocol below was used for both cell lines and for testing of the compounds of Formula (I) of the present invention.
LNCaP cells were grown to about 80% confluence, media removed and cells rinsed in Hank's balanced salt solution prior to separation from the plate with 0.05% Trypsin EDTA. Cells were lifted and trypsin negated in complete CSS (charcoal stripped serum) culture media. CSS was maintained on cells for 24 h prior to assay, at which time 5,000 cells/[…] were seeded in Greiner 384 well White/White Tissue Culture Treated Plates and incubated for a further 1-2 hours at 37° C., 5% CO2, prior to addition of 10 μL of 4× Test Compounds (compounds described herein) or Assay Controls (all diluted in complete media containing 10% css). A further 10 μL of 4× R-1881 Agonist Challenge (antagonist assay) or Buffer (agonist assay) was then added (all diluted in complete media containing 10% css). Agonist challenge was at 400 pM for WT assay and 600 pM for F876L assay. Plates containing cells and compounds herein were incubated for a further 20-24 hours at 37° C., 5% CO2 before addition of 40 μL/well of Steady-Glo Luciferase Assay System Reagent (Promega#E2520). After 1 h, plates were read for luminescence on a BMG Pherastar.
Agonist challenge: R-1881 (Metribolone)—Agonist
Antagonist control (low control): 5-(5-(4-((1-Methylpiperidin-4-yl)oxy)phenyl)-8-oxo-6-thioxo-5,7-diazaspiro[3.4]octan-7-yl)-3-(trifluoromethyl)picolinonitrile (WO 2011/103202, EXAMPLE 19, Compound 129, CAS #1332390-06-3).
(1−(Sample RLU−Ave Low Control RLU[10 μM Antagonist Control])/(Ave High Control RLU [400 pM R-1881]−Ave Low Control RLU[10 μM Antagonist Control]))*100.
EC/IC50 calculations were achieved utilizing calculated RLU data and data fitting macros. Data were fit using least-squares methods to the following formula: […]
As used herein: • pIC50 is defined as −Log10(IC50 expressed in [Molar]). • pEC50 is defined as −Log10(EC50 expressed in [Molar]). • MAX % Inh is defined as the maximum % inhibition of R1881 control response observed for a compound over the tested concentration range. • MAX % Stim is defined as the maximum % stimulation (agonist response) observed for a compound over the tested concentration range. • LNCaP-AR-wt ANT refers to the reporter assay using LNCaP cells stably transfected with the Androgen Response Element Firefly Luciferase lentiviral construct and wild-type Androgen Receptor (AR-wt) in Antagonist mode. • LNCaP-AR-wt AG refers to the reporter assay using LNCaP cells stably transfected with the Androgen Response Element Firefly Luciferase lentiviral construct and wild-type Androgen Receptor (AR-wt) in Agonist mode. • LNCaP-AR-F876L ANT refers to the reporter assay using LNCaP cells stably transfected with the Androgen Response Element Firefly Luciferase lentiviral construct and F876L mutant Androgen Receptor (AR-F876L) in Antagonist mode. • LNCaP-AR-F876L AG refers to the reporter assay using LNCaP cells stably transfected with the Androgen Response Element Firefly Luciferase lentiviral construct and F876L mutant Androgen Receptor (AR-F876L) in Agonist mode.

Broadly, the pIC50 is the negative decadic logarithm of the IC50, by convention in mol/L. For `N#Cc1ccc(N2C(=O)C3(CCC3)N(c3ccc(OC4CCNCC4)nc3)C2=S)cc1Cl` [Compound 23, 2-Chloro-4-(8-oxo-5-(6-(piperidin-4-yloxy)pyridin-3-yl)-6-thioxo-5,7-diazaspiro[3.4]octan-7-yl)benzonitrile hydrochloride], the pIC50 is 7.30 and the Emax is 103%.
For `CC1(C)C(=O)N(c2ccc(C#N)c(Cl)c2)C(=S)N1c1ccc(OC2CCNCC2)nc1` [Compound 9, 2-Chloro-4-(4,4-dimethyl-5-oxo-3-(6-(piperidin-4-yloxy)pyridin-3-yl)-2-thioxoimidazolidin-1-yl)benzonitrile hydrochloride], in that order: 7.41 and 100%.
Take `CN1CCC(Oc2ncc(N3C(=S)N(c4ccc(C#N)c(C(F)(F)F)c4)C(=O)C34CCC4)cn2)CC1` [Compound 16, 4-(5-(2-((1-Methylpiperidin-4-yl)oxy)pyrimidin-5-yl)-8-oxo-6-thioxo-5,7-diazaspiro[3.4]octan-7-yl)-2-(trifluoromethyl)benzonitrile]: the IC50 is 166 nM and the Emax came out at 101%.
Regarding `CN1CCC(Oc2ccc(N3C(=S)N(c4ccc(C#N)c(Cl)c4)C(=O)C3(C)C)cn2)CC1` [Compound 10, 2-Chloro-4-(4,4-dimethyl-3-(6-((1-methylpiperidin-4-yl)oxy)pyridin-3-yl)-5-oxo-2-thioxoimidazolidin-1-yl)benzonitrile hydrochloride], the pIC50 is 7.07 and the Emax was determined as 101%.
The like results for `CN1CCC(Oc2ccc(N3C(=S)N(c4ccc(C#N)c(C(F)(F)F)c4)C(=O)C34CCC4)cc2)CC1` [Compound 12, 4-(5-(4-((1-Methylpiperidin-4-yl)oxy)phenyl)-8-oxo-6-thioxo-5,7-diazaspiro[3.4]octan-7-yl)-2-(trifluoromethyl)benzonitrile] were, in that order, 6.78 and 101%.
The like results for `CN1CCC(Oc2ccc(N3C(=S)N(c4ccc(C#N)c(Cl)c4)C(=O)C3(C)C)cc2)CC1` [Compound 8, 2-Chloro-4-(4,4-dimethyl-3-(4-((1-methylpiperidin-4-yl)oxy)phenyl)-5-oxo-2-thioxoimidazolidin-1-yl)benzonitrile hydrochloride] were, in that order, 7.23 and 101%.
Regarding `Cc1cc(N2C(=O)C3(CCC3)N(c3ccc(OC4CCN(C)CC4)cc3)C2=S)ccc1C#N` [Compound 17, 2-Methyl-4-(5-(4-((1-methylpiperidin-4-yl)oxy)phenyl)-8-oxo-6-thioxo-5,7-diazaspiro[3.4]octan-7-yl)benzonitrile], the IC50 was 129 nM and the Emax was 101%.
Consider `CN1CCC(Oc2ccc(N3C(=S)N(c4ccc(C#N)c(Cl)c4)C(=O)C34CCC4)cc2)CC1` [Compound 22, 2-Chloro-4-(5-(4-((1-methylpiperidin-4-yl)oxy)phenyl)-8-oxo-6-thioxo-5,7-diazaspiro[3.4]octan-7-yl)benzonitrile], for which the pIC50 was 6.95 and the Emax was found to be 99.5%.
Turning to `CN1CCC(Oc2ccc(N3C(=S)N(c4ccc(C#N)c(C(F)(F)F)c4)C(=O)C3(C)C)cn2)CC1` [Compound 4, 4-(4,4-Dimethyl-3-(6-((1-methylpiperidin-4-yl)oxy)pyridin-3-yl)-5-oxo-2-thioxoimidazolidin-1-yl)-2-(trifluoromethyl)benzonitrile hydrochloride], the pIC50 is 7.08 and the Emax amounted to 102%.
In the case of `N#Cc1ccc(N2C(=O)C3(CCC3)N(c3ccc(OC4CCNCC4)cc3)C2=S)cc1Cl` [Compound 21, 2-Chloro-4-(8-oxo-5-(4-(piperidin-4-yloxy)phenyl)-6-thioxo-5,7-diazaspiro[3.4]octan-7-yl)benzonitrile], the IC50 was 200 nM and the Emax is 104%.
The like results for `N#Cc1ccc(N2C(=O)C3(CCC3)N(c3cnc(OC4CCNCC4)nc3)C2=S)cc1C(F)(F)F` [Compound 15, 4-(8-Oxo-5-(2-(piperidin-4-yloxy)pyrimidin-5-yl)-6-thioxo-5,7-diazaspiro[3.4]octan-7-yl)-2-(trifluoromethyl)benzonitrile] were, in that order, 107 nM and 101%.
For `COc1cc(N2C(=O)C3(CCC3)N(c3ccc(OC4CCN(C)CC4)nc3)C2=S)ccc1C#N` [Compound 20, 2-Methoxy-4-(5-(6-((1-methylpiperidin-4-yl)oxy)pyridin-3-yl)-8-oxo-6-thioxo-5,7-diazaspiro[3.4]octan-7-yl)benzonitrile], in that order: 145 nM and 100%.
In the case of `COc1cc(N2C(=O)C3(CCC3)N(c3ccc(OC4CCN(C)CC4)cc3)C2=S)ccc1C#N` [Compound 19, 2-Methoxy-4-(5-(4-((1-methylpiperidin-4-yl)oxy)phenyl)-8-oxo-6-thioxo-5,7-diazaspiro[3.4]octan-7-yl)benzonitrile], the pIC50 is 7.08 and the Emax is 101%.
With `Cc1cc(N2C(=O)C3(CCC3)N(c3ccc(OC4CCN(C)CC4)nc3)C2=S)ccc1C#N` [Compound 18, 2-Methyl-4-(5-(6-((1-methylpiperidin-4-yl)oxy)pyridin-3-yl)-8-oxo-6-thioxo-5,7-diazaspiro[3.4]octan-7-yl)benzonitrile], the IC50 was 282 nM and the Emax was determined as 99.8%.
The like results for `CN1CCC(Oc2ncc(N3C(=S)N(c4ccc(C#N)c(C(F)(F)F)c4)C(=O)C3(C)C)cn2)CC1` [Compound 6, 4-(4,4-Dimethyl-3-(2-((1-methylpiperidin-4-yl)oxy)pyrimidin-5-yl)-5-oxo-2-thioxoimidazolidin-1-yl)-2-(trifluoromethyl)benzonitrile] were, in that order, 135 nM and 101%.
Consider `CC1(C)C(=O)N(c2ccc(C#N)c(C(F)(F)F)c2)C(=S)N1c1ccc(OC2CCNCC2)nc1` [Compound 3, 4-(4,4-Dimethyl-5-oxo-3-(6-(piperidin-4-yloxy)pyridin-3-yl)-2-thioxoimidazolidin-1-yl)-2-(trifluoromethyl)benzonitrile hydrochloride], for which the pIC50 was 7.39 and the Emax is 102%.
